Drawing on patent US8426604B2 (Janssen Pharmaceutica NV, priority 2010, dated 2013), this text covers EC50 for 25 molecules.

For the assay, the target named is T1, ERR1 (also known as ERR-α or ERR-1) (Homo sapiens, UniProt P11474).
T1 sequence (P11474 193-421 limits assumed): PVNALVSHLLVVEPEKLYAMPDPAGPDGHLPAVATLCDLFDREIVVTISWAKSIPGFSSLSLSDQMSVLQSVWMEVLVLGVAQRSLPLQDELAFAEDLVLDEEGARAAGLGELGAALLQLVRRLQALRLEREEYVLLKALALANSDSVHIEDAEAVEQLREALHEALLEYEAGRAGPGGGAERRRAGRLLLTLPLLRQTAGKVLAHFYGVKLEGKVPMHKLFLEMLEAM
Nature of the assay: TR-FRET assay (disruption of co-activator peptide binding). The following applies: 6His-tagged ERR1LBD, GST-hSRC2 co-activator peptide; average of 3 independent experiments. The assay is classed as biochemical. The method, then: Time-Resolved Fluorescence Resonance Energy Transfer (TR-FRET) experiments were performed to examine the functional response of ERR1 (also known as ERR-α or ERR-1) ligands. The TR-FRET assay described herein relied on the conformation of ERR1 for binding to a co-activator peptide: when a test compound binds to ERR1 and alters its conformation, it can disrupt the binding of the co-activator peptide. The components of this homogeneous secondary assay included: the ^6His-tagged-ERR1LBD, a GST-labeled-hSRC2 co-activator polypeptide and a fluorescent donor/acceptor pair from CIS bio international htrf/bioassays (Bedford, Mass.) using both an α-GST Europium Cryptate (Eu) label and an α^6His-XL665 (allophycocyanin) fluorophore.
For TR-FRET measurements, the reaction was buffered in 25 mM Tris pH 8, 2.5 mM Hepes, 20 mM KCl, 1 mM DTT, and 0.05 mg/mL BSA (-lipids). The final concentrations of reagents were 6 nM of ERR1LBD, 6 nM GST-SRC-2 peptide, 30 nM Eu cryptate, and 7.5 nM XL665. Reactions were allowed to reach equilibrium at 25° C. for 4-18 hours before collecting data on the Analyst from LJL Biosystems (Molecular Devices Sunnyvale, Calif.). As a time-resolved method, the samples were excited at […] and emission was collected for 1 ms at both 615 and 665 nm with delays of 400 and 75 μs, respectively. Dose response curves were fitted using a hyperbolic equation and the data reported is the average of 3 independent experiments.

`COC[C@@H]1C[C@H](N(C)C2=NC(=O)/C(=C/c3ccc4c(cnn4Cc4ccc(Cl)cc4C(F)(F)F)c3)S2)CN1` (stereo in doubt) [Compound 41, 5-[1-(4-Chloro-2-trifluoromethyl-benzyl)-1H-indazol-5-ylmethylene]-2-[(5-methoxymethyl-pyrrolidin-3-yl)-methyl-amino]-thiazol-4-one] returned an EC50 of 24 nM. In the case of `CN(C1=NC(=O)/C(=C/c2ccc3c(cnn3Cc3ccc(Cl)cc3C(F)(F)F)c2)S1)[C@@H]1CN[C@H](CO)C1` (stereo in doubt) [Compound 42, 5-[1-(4-Chloro-2-trifluoromethyl-benzyl)-1H-indazol-5-ylmethylene]-2-[(5-hydroxymethyl-pyrrolidin-3-yl)-methyl-amino]-thiazol-4-one], the EC50 turned out to be 24 nM. In the case of `CN(C)C1=NC(=O)/C(=C/c2ccc3c(cnn3Cc3ccc(C(F)(F)F)cc3C(F)(F)F)c2)S1` [Compound 1, 5-[1-(2,4-Bis-trifluoromethyl-benzyl)-1H-indazol-5-ylmethylene]-2-dimethylamino-thiazol-4-one] it was 12 nM.

In turn, `CN(C)CCN(C)C1=NC(=O)/C(=C/c2ccc3c(cnn3Cc3ccc(C(F)(F)F)cc3C(F)(F)F)c2)S1` [Compound 2, 5-[1-(2,4-Bis-trifluoromethyl-benzyl)-1H-indazol-5-ylmethylene]-2-[(2-dimethylamino-ethyl)-methyl-amino]-thiazol-4-one] came in with an EC50 of 7 nM. In the case of `N#Cc1ccc(Cn2ncc3cc(/C=C4\SC(N(CCO)CCO)=NC4=O)ccc32)c(C(F)(F)F)c1` [Compound 3, 4-(5-{2-[Bis-(2-hydroxy-ethyl)-amino]-4-oxo-4H-thiazol-5-ylidenemethyl}-indazol-1-ylmethyl)-3-trifluoromethyl-benzonitrile] it was 120 nM; in that of `O=C1N=C(N(CCO)CCO)S/C1=C\c1ccc2c(cnn2Cc2ccc(Cl)cc2C(F)(F)F)c1` [Compound 4, 2-[Bis-(2-hydroxy-ethyl)-amino]-5-[1-(4-chloro-2-trifluoromethyl-benzyl)-1H-indazol-5-ylmethylene]-thiazol-4-one], 10 nM; in that of `CN(C)CCN(C)C1=NC(=O)/C(=C/c2ccc3c(cnn3Cc3ccc(Cl)cc3C(F)(F)F)c2)S1` [Compound 5, 5-[1-(4-Chloro-2-trifluoromethyl-benzyl)-1H-indazol-5-ylmethylene]-2-[(2-dimethylamino-ethyl)-methyl-amino]-thiazol-4-one], 5.1 nM. On to `CN(CC(O)CO)C1=NC(=O)/C(=C/c2ccc3c(cnn3Cc3ccc(Cl)cc3C(F)(F)F)c2)S1` (stereo not shown) [Compound 6, 5-[1-(4-Chloro-2-trifluoromethyl-benzyl)-1H-indazol-5-ylmethylene]-2-[(2,3-dihydroxy-propyl)-methyl-amino]-thiazol-4-one], for which the EC50 is 3.6 nM. In turn, `CN(C)CCN(C)C1=NC(=O)/C(=C/c2ccc3c(cnn3Cc3ccc(S(C)(=O)=O)cc3Cl)c2)S1` [Compound 7, 5-[1-(2-Chloro-4-methanesulfonyl-benzyl)-1H-indazol-5-ylmethylene]-2-[(2-dimethylamino-ethyl)-methyl-amino]-thiazol-4-one] showed an EC50 of 830 nM. For the molecule `CN(CC(O)CO)C1=NC(=O)/C(=C/c2ccc3c(cnn3Cc3ccc(S(C)(=O)=O)cc3C(F)(F)F)c2)S1` (stereo not shown) [Compound 8, 2-[(2,3-Dihydroxy-propyl)-methyl-amino]-5-[1-(4-methanesulfonyl-2-trifluoromethyl-benzyl)-1H-indazol-5-ylmethylene]-thiazol-4-one], the EC50 was 520 nM. As for `COCCN(CCOC)C1=NC(=O)/C(=C/c2ccc3c(cnn3Cc3ccc(OC)cc3C(F)(F)F)c2)S1` [Compound 9, 2-[Bis-(2-methoxy-ethyl)-amino]-5-[1-(4-methoxy-2-trifluoromethyl-benzyl)-1H-indazol-5-ylmethylene]-thiazol-4-one], the EC50 is 4.1 nM.

Take `COCCN(CCOC)C1=NC(=O)/C(=C/c2ccc3c(cnn3Cc3ncc(C(F)(F)F)cc3Cl)c2)S1` [Compound 10, 2-[Bis-(2-methoxy-ethyl)-amino]-5-[1-(3-chloro-5-trifluoromethyl-pyridin-2-ylmethyl)-1H-indazol-5-ylmethylene]-thiazol-4-one]: the EC50 came out at 800 nM. Turning to `CN(CC(O)CO)C1=NC(=O)/C(=C/c2ccc3c(cnn3Cc3ncc(C(F)(F)F)cc3Cl)c2)S1` (stereo not shown) [Compound 11, 5-[1-(3-Chloro-5-trifluoromethyl-pyridin-2-ylmethyl)-1H-indazol-5-ylmethylene]-2-[(2,3-dihydroxy-propyl)-methyl-amino]-thiazol-4-one], the EC50 was found to be 1600 nM. In the case of `O=C1N=C(N(CCO)CCO)S/C1=C\c1ccc2c(cnn2Cc2ncc(C(F)(F)F)cc2Cl)c1` [Compound 12, 2-[Bis-(2-hydroxy-ethyl)-amino]-5-[1-(3-chloro-5-trifluoromethyl-pyridin-2-ylmethyl)-1H-indazol-5-ylmethylene]-thiazol-4-one] it was 3900 nM; in that of `COc1ccc(Cn2ncc3cc(/C=C4\SC(N(C)CC(O)CO)=NC4=O)ccc32)c(C(F)(F)F)c1` (stereo not shown) [Compound 13, 2-[(2,3-Dihydroxy-propyl)-methyl-amino]-5-[1-(4-methoxy-2-trifluoromethyl-benzyl)-1H-indazol-5-ylmethylene]-thiazol-4-one], 3.6 nM; in that of `COCCN(CCOC)C1=NC(=O)/C(=C/c2ccc3c(cnn3Cc3ccc(Cl)cc3C(F)(F)F)c2)S1` [Compound 14, 2-[Bis-(2-methoxy-ethyl)-amino]-5-[1-(4-chloro-2-trifluoromethyl-benzyl)-1H-indazol-5-ylmethylene]-thiazol-4-one], 3.3 nM. For the molecule `CN(C1=NC(=O)/C(=C/c2ccc3c(cnn3Cc3ccc(C(F)(F)F)cc3C(F)(F)F)c2)S1)C1CCNCC1` [Compound 17, 5-[1-(2,4-Bis-trifluoromethyl-benzyl)-1H-indazol-5-ylmethylene]-2-(methyl-piperidin-4-yl-amino)-thiazol-4-one], the EC50 came to 37 nM. As for `CN(CCN1CCCC1)C1=NC(=O)/C(=C/c2ccc3c(cnn3Cc3ccc(Cl)cc3C(F)(F)F)c2)S1` [Compound 18, 5-[1-(4-Chloro-2-trifluoromethyl-benzyl)-1H-indazol-5-ylmethylene]-2-[methyl-(2-pyrrolidin-1-yl-ethyl)amino]-thiazol-4-one], the figure is 13 nM; as for `CN1CCC(N(C)C2=NC(=O)/C(=C/c3ccc4c(cnn4Cc4ccc(Cl)cc4C(F)(F)F)c3)S2)CC1` [Compound 19, 5-[1-(4-Chloro-2-trifluoromethyl-benzyl)-1H-indazol-5-ylmethylene]-2-[methyl-(1-methyl-piperidin-4-yl)-amino]-thiazol-4-one], 8.1 nM.

Turning to `CON(C)C1=NC(=O)/C(=C/c2ccc3c(cnn3Cc3ccc(Cl)cc3C(F)(F)F)c2)S1` [Compound 21, 5-[1-(4-Chloro-2-trifluoromethyl-benzyl)-1H-indazol-5-ylmethylene]-2-(methoxy-methyl-amino)-thiazol-4-one], the EC50 turned out to be 24 nM. In the case of `CN(CC(=O)O)C1=NC(=O)/C(=C/c2ccc3c(cnn3Cc3ccc(Cl)cc3C(F)(F)F)c2)S1` [Compound 22, ({5-[1-(4-Chloro-2-trifluoromethyl-benzyl)-1H-indazol-5-ylmethylene]-4-oxo-4,5-dihydro-thiazol-2-yl}-methyl-amino)-acetic acid] it was 13 nM; in that of `CN1CCN(CCN(C)C2=NC(=O)/C(=C/c3ccc4c(cnn4Cc4ccc(Cl)cc4C(F)(F)F)c3)S2)CC1` [Compound 23, 5-[1-(4-Chloro-2-trifluoromethyl-benzyl)-1H-indazol-5-ylmethylene]-2-{methyl-[2-(4-methyl-piperazin-1-yl)-ethyl]-amino}-thiazol-4-one], 9 nM. For `COCCN1CCC(N(C)C2=NC(=O)/C(=C/c3ccc4c(cnn4Cc4ccc(Cl)cc4C(F)(F)F)c3)S2)CC1` [Compound 24, 5-[1-(4-Chloro-2-trifluoromethyl-benzyl)-1H-indazol-5-ylmethylene]-2-{[1-(2-methoxy-ethyl)-piperidin-4-yl]-methyl-amino}-thiazol-4-one], the EC50 turned out to be 9 nM. As for `CN(C1=NC(=O)/C(=C/c2ccc3c(cnn3Cc3ccc(Cl)cc3C(F)(F)F)c2)S1)C1CCN(CCF)CC1` [Compound 25, 5-[1-(4-Chloro-2-trifluoromethyl-benzyl)-1H-indazol-5-ylmethylene]-2-{[1-(2-fluoro-ethyl)-piperidin-4-yl]-methyl-amino}-thiazol-4-one], the figure is 11 nM.

`CN(CCN1CCOCC1)C1=NC(=O)/C(=C/c2ccc3c(cnn3Cc3ccc(Cl)cc3C(F)(F)F)c2)S1` [Compound 26, 5-[1-(4-Chloro-2-trifluoromethyl-benzyl)-1H-indazol-5-ylmethylene]-2-[methyl-(2-morpholin-4-yl-ethyl)-amino]-thiazol-4-one] displayed an EC50 of 21 nM.

What is called EC50 is the concentration needed to bring the measured effect to its halfway point. A lower EC50 goes with an effect from little substance.
